Laboratory results from patent EP4692091A1, “CA[…], AND PHARMACEUTICAL COMPOSITION, PREPARATION METHOD THEREFOR AND USE THEREOF” (Changchun Genescience Pharmaceutical Co., Ltd., priority 2023, dated 2024).

Assays:
[1] = Stability of compounds in human plasma; assay type: in vitro ADME; conditions: 37°C, 5 µmol/L; for Residual percentage (%): 0 h; for remaining at 1 h, 5 µM / remaining at 2 h, 5 µM / remaining at 6 h, 5 µM / remaining at 24 h, 5 µM: read-out: Residual percentage (%)
Description: • (1) 199 µL of human plasma was added to the culture plate of each cell. The culture plate was preheated to 37°C, and kept at this temperature for 15 min. • (2) After preincubation, 1 µL of 1 mmol/L each test compound and 1 µL of 1 mmol/L control compound were added to 199 µL of plasma, so that a final concentration of each test compound was 5 µmol/L and that of the control compound was 5 µmol/L. The final concentration of the organic solvent was 0.5%. The experiment would be duplicated twice. • (3) Reaction samples were incubated at 37°C. • (4) The reaction was stopped by adding 600 µL of cold methanol containing the internal standard at 0, 1, 2, 6, and 24 h. Each sample was vortex mixed for 10 min, and then centrifuged at 3,220 g for 30 min to precipitate the protein. […] Based on the signal response and peak shapes of liquid chromatography-mass spectrometry (LC-MS), the supernatant would be diluted with ultrapure water.
All calculations were performed using Microsoft Excel. The peak area ratio was determined from the chromatogram of extracted ions. The percentage of compounds remaining at each time point was calculated as per the following formula: Residual percentagetmin (%) = peak area ratiotmin /peak areat0 × 100 [formula]

SK-BR-3 = assay: Inhibition of proliferation of SK-BR-3 cells by compounds (CellTiter-Glo, 72 h); assay type: cell-based; conditions: SK-BR-3, 72 h incubation
Description: 3: Test method (1) Cell plating: first, tumor cells SK-BR-3 were cultured using a corresponding culture medium, trypsinized, centrifuged, resuspended for counting, adjusted to an appropriate concentration, and then plated on a 384-well plate. (2) Co-incubation of the compounds and tumor cells: after the cells adhered to the wall, 100 nL of a diluted bioactive substance (test compound) was added to the cell culture plate using ECHO, the final concentration of DMSO in wells of the cell plate was 0.33%, and the incubation was performed in an incubator at 37°C with 5% CO2 for 72 h. (3) After the incubation was complete, 30 µL of a CTG reagent (CelltiterGlo kit) was added to each well. The culture was oscillated on a fast oscillator for 2 min, centrifuged at 1,000 rpm for 1 min, and kept away from light at room temperature for 30 min. The chemiluminescence signal value was read using an Envision instrument. (4) Cell viability detection: IC50 was calculated using GraphPad Prism 8 software, and the IC50 of the compounds was obtained using the following nonlinear fitting formula (see Table 1) : 1. Y=Bottom+(Top-Bottom)/(1+10^((LogIC50-X)*HillSlope)) 2. […] Table 1 Antiproliferative activity of test compounds on SK-BR-3

[2] = Stability of compounds in human plasma; assay type: in vitro ADME; conditions: 37°C, 5 µmol/L, read-out: Residual percentage (%)
NCI-N87 = assay: Inhibition of proliferation of NCI-N87 cells by test compounds (CellTiter-Glo, 72 h); assay type: cell-based; conditions: NCI-N87, 72 h incubation
Description: 3: Test method (1) Cell plating: first, tumor cells NCI-N87 were cultured using a corresponding culture medium, trypsinized, centrifuged, resuspended for counting, adjusted to an appropriate concentration, and then plated on a 384-well plate. (2) Co-incubation of the compounds and tumor cells: after the cells adhered to the wall, 100 nL of a diluted bioactive substance (test compound) was added to the cell culture plate using ECHO, the final concentration of DMSO in wells of the cell plate was 0.33%, and the incubation was performed in an incubator at 37°C with […] for 72 h. (3) After the incubation was complete, 30 µL of a CTG reagent (CelltiterGlo kit) was added to each well. The culture was oscillated on a fast oscillator for 2 min, centrifuged at 1,000 rpm for 1 min, and kept away from light at room temperature for 30 min. The chemiluminescence signal value was read using an Envision instrument. (4) Cell viability detection: IC50 was calculated using GraphPad Prism 8 software, and the IC50 of the compounds was obtained using the following nonlinear fitting formula (see Table 3) : 11. Y=Bottom+(Top-Bottom)/(1+10^((LogIC50-X)*HillSlope)) 12. […] Table 3 Antiproliferative activity of test compounds on cells NCI-N87

MDA-MB-468 = assay: Inhibition of proliferation of MDA-MB-468 cells by test compounds (CellTiter-Glo, 72 h); assay type: cell-based; conditions: MDA-MB-468, 72 h incubation
Description: 3: Test method • (1) Cell plating: first, tumor cells MDA-MB-468 were cultured using a corresponding culture medium, trypsinized, centrifuged, resuspended for counting, adjusted to an appropriate concentration, and then plated on a 384-well plate. • (2) Co-incubation of the compounds and tumor cells: after the cells adhered to the wall, 100 nL of a diluted bioactive substance (test compound) was added to the cell culture plate using ECHO, the final concentration of DMSO in wells of the cell plate was 0.33%, and the incubation was performed in an incubator at 37°C with […] for 72 h. • (3) After the incubation was complete, 30 µL of a CTG reagent (CelltiterGlo kit) was added to each well. The culture was oscillated on a fast oscillator for 2 min, centrifuged at 1,000 rpm for 1 min, and kept away from light at room temperature for 30 min. The chemiluminescence signal value was read using an Envision instrument. • (4) Cell viability detection: IC50 was calculated using GraphPad Prism 8 software, and the IC50 of the compounds was obtained using the following nonlinear fitting formula (see Table 2): • 6. Y=Bottom+(Top-Bottom)/(1+10^((LogIC50-X)*HillSlope)) • 7. […] Table 2 Antiproliferative activity of test compounds on MDA-MB-468

CC[C@@]1(O)C(=O)OCc2c1cc1n(c2=O)Cc2c-1nc1cc(F)c(C)c3c1c2C(NC(=O)C[C@@H](C)O)CCC3 (single isomer, unassigned) [6-2]
Residual percentage (%) [1]: 100.00% | remaining at 1 h, 5 µM [1]: 96.6% | remaining at 2 h, 5 µM [1]: 86.2% | remaining at 6 h, 5 µM [1]: 89% | remaining at 24 h, 5 µM [1]: 87% | IC50 (SK-BR-3; Homo sapiens, SK-BR-3, 72 h): 7.3 nM | remaining at 4 h, 5 µM [2]: 93.7% | IC50 (NCI-N87; Homo sapiens, NCI-N87, 72 h): 6.8 nM | IC50 (MDA-MB-468; Homo sapiens, MDA-MB-468, 72 h): 6.5 nM

CC[C@@]1(O)C(=O)OCc2c1cc1n(c2=O)Cc2c-1nc1cc(F)c(C3CC3)c3c1c2C(NC(=O)C[C@@H](C)O)CC3 (single isomer, unassigned) [17-2]
Residual percentage (%) [1]: 100.00% | remaining at 1 h, 5 µM [1]: 90.1% | remaining at 2 h, 5 µM [1]: 89.3% | remaining at 6 h, 5 µM [1]: 97.1% | remaining at 24 h, 5 µM [1]: 102% | IC50 (SK-BR-3): 6.6 nM | remaining at 4 h, 5 µM [2]: 93.8% | IC50 (NCI-N87): 5.3 nM | IC50 (MDA-MB-468): 8.1 nM

CC[C@@]1(O)C(=O)OCc2c1cc1n(c2=O)Cc2c-1nc1cc(F)c(C)c3c1c2[C@@H](NC(=O)[C@@H](O)C1CC1)CCC3 [11-2, (S)-2-cyclopropyl-N-((1S,10S)-10-ethyl-6-fluoro-10-hydroxy-5-methyl-11,14-dioxo-1,2,3,4,10,11,14,16-octahydro-13H-cyclohepta[de]pyrano[3',4':6,7]indolizino[1,2-b]quinolin-1-yl)-2-hydroxyacetamide]
Residual percentage (%) [1]: 100.00% | remaining at 1 h, 5 µM [1]: 96.8% | remaining at 2 h, 5 µM [1]: 92.1% | remaining at 6 h, 5 µM [1]: 94.5% | remaining at 24 h, 5 µM [1]: 88.8% | remaining at 4 h, 5 µM [2]: 93.4%
